In paper PMC5218480 (PLoS ONE, 2017):

Test system: MV-4-11 cells
Experiment: Gene expression microarray analysis (Affymetrix PrimeView) and GSEA
Type: cell-based, human
Parameters: RFU PODN (11730768_x_at) / Fold change /veh PODN (11730768_x_at) / RFU LINC00158 (11744669_a_at) / Fold change /veh LINC00158 (11744669_a_at) / RFU DUSP10 (11751237_a_at) / Fold change /veh DUSP10 (11751237_a_at) / RFU ID3 (11757404_x_at) / Fold change /veh ID3 (11757404_x_at) / RFU PLEKHG5 (11737974_s_at) / Fold change /veh PLEKHG5 (11737974_s_at) / RFU LRRC4B (11730491_at) / Fold change /veh LRRC4B (11730491_at) / RFU GIMAP4 (11747438_a_at) / Fold change /veh GIMAP4 (11747438_a_at) / RFU KRT8 (11758183_x_at) / Fold change /veh KRT8 (11758183_x_at) / RFU CNN1 (11734310_a_at) / Fold change /veh CNN1 (11734310_a_at) / RFU VPS37D (11726825_at) / Fold change /veh VPS37D (11726825_at) / RFU C10orf10 (11716522_x_at) / Fold change /veh C10orf10 (11716522_x_at) / RFU KIR2DL2 /// KIR2DL4 /// KIR2DL5A /// KIR2DL5B /// KIR2DS1 /// KIR2DS2 /// KIR2DS3 /// KIR2DS4 /// KIR3DL3 /// KIR3DL3 /// KIR3DS1 (11738374_at) / Fold change /veh KIR2DL2 /// KIR2DL4 /// KIR2DL5A /// KIR2DL5B /// KIR2DS1 /// KIR2DS2 /// KIR2DS3 /// KIR2DS4 /// KIR3DL3 /// KIR3DL3 /// KIR3DS1 (11738374_at) / RFU C1QL1 (11718748_at) / Fold change /veh C1QL1 (11718748_at) / RFU TMPRSS4 (11747572_a_at) / Fold change /veh TMPRSS4 (11747572_a_at) / RFU HAMP (11756126_x_at) / Fold change /veh HAMP (11756126_x_at) / RFU RNFT2 (11725882_a_at) / Fold change /veh RNFT2 (11725882_a_at) / RFU NR4A2 (11747474_a_at) / Fold change /veh NR4A2 (11747474_a_at) / RFU ABCC12 (11746883_a_at) / Fold change /veh ABCC12 (11746883_a_at) / RFU TMEM136 (11760407_x_at) / Fold change /veh TMEM136 (11760407_x_at) / RFU CLDN22 /// WWC2 (11732394_at) / Fold change /veh CLDN22 /// WWC2 (11732394_at) / RFU HLA-DPB1 (11760878_x_at) / Fold change /veh HLA-DPB1 (11760878_x_at) / RFU SPINT1 (11716480_a_at) / Fold change /veh SPINT1 (11716480_a_at) / RFU GAP43 (11754022_s_at) / Fold change /veh GAP43 (11754022_s_at) / RFU A4GNT (11735810_at) / Fold change /veh A4GNT (11735810_at) / RFU PRB3 (11715151_x_at) / Fold change /veh PRB3 (11715151_x_at) / RFU TUBB4B (11761932_at) / Fold change /veh TUBB4B (11761932_at) / RFU CAPN14 (11732068_a_at) / Fold change /veh CAPN14 (11732068_a_at) / RFU TMCC2 (11721928_a_at) / Fold change /veh TMCC2 (11721928_a_at) / RFU IRGQ (11745062_a_at) / Fold change /veh IRGQ (11745062_a_at) / RFU FAM174B (11720279_a_at) / Fold change /veh FAM174B (11720279_a_at) / RFU TMPRSS4 (11748680_a_at) / Fold change /veh TMPRSS4 (11748680_a_at) / RFU FAM212B (11763350_a_at) / Fold change /veh FAM212B (11763350_a_at) / RFU PLEKHG5 (11743358_a_at) / Fold change /veh PLEKHG5 (11743358_a_at) / RFU ZSCAN30 (11745921_a_at) / Fold change /veh ZSCAN30 (11745921_a_at) / RFU CMKLR1 (11741424_a_at) / Fold change /veh CMKLR1 (11741424_a_at) / RFU LOC101060620 /// MAPK8IP1 (11723275_at) / Fold change /veh LOC101060620 /// MAPK8IP1 (11723275_at) / RFU SPTSSB (11747773_x_at) / Fold change /veh SPTSSB (11747773_x_at) / RFU PRSS12 (11739890_at) / Fold change /veh PRSS12 (11739890_at) / RFU BIN1 (11741810_x_at) / Fold change /veh BIN1 (11741810_x_at) / RFU WNT11 (11732464_a_at) / Fold change /veh WNT11 (11732464_a_at) / RFU C10orf10 (11716521_a_at) / Fold change /veh C10orf10 (11716521_a_at) / RFU C5orf56 (11738089_at) / Fold change /veh C5orf56 (11738089_at) / RFU CYB561 (11721691_x_at) / Fold change /veh CYB561 (11721691_x_at) / RFU ANKRD19P (11752326_a_at) / Fold change /veh ANKRD19P (11752326_a_at) / RFU OR2T12 /// OR2T33 /// OR2T8 (11738714_s_at) / Fold change /veh OR2T12 /// OR2T33 /// OR2T8 (11738714_s_at) / RFU VCAN (11748164_a_at) / Fold change /veh VCAN (11748164_a_at) / RFU JSRP1 (11732532_at) / Fold change /veh JSRP1 (11732532_at) / RFU KRTAP10-11 (11738290_x_at) / Fold change /veh KRTAP10-11 (11738290_x_at) / RFU MYO3A (11730013_a_at) / Fold change /veh MYO3A (11730013_a_at) / RFU EBF3 (11725865_a_at) / Fold change /veh EBF3 (11725865_a_at) / RFU CAMK2N1 (11719241_x_at) / Fold change /veh CAMK2N1 (11719241_x_at) / RFU C5orf56 (11738088_a_at) / Fold change /veh C5orf56 (11738088_a_at) / RFU OLFML3 (11715873_a_at) / Fold change /veh OLFML3 (11715873_a_at) / RFU LOC100653217 /// NTM (11731650_a_at) / Fold change /veh LOC100653217 /// NTM (11731650_a_at) / RFU MAPK11 (11762145_a_at) / Fold change /veh MAPK11 (11762145_a_at) / RFU FIZ1 (11724087_x_at) / Fold change /veh FIZ1 (11724087_x_at) / RFU OASL (11726364_x_at) / Fold change /veh OASL (11726364_x_at) / RFU SOX15 (11748057_x_at) / Fold change /veh SOX15 (11748057_x_at) / RFU CD79A (11719716_a_at) / Fold change /veh CD79A (11719716_a_at) / RFU HIST1H1D (11736915_at) / Fold change /veh HIST1H1D (11736915_at) / RFU CASKIN2 (11723855_a_at) / Fold change /veh CASKIN2 (11723855_a_at) / RFU LOC730098 (11760151_x_at) / Fold change /veh LOC730098 (11760151_x_at) / RFU OR4N2 (11742367_at) / Fold change /veh OR4N2 (11742367_at) / RFU PRRT2 (11749266_a_at) / Fold change /veh PRRT2 (11749266_a_at) / RFU SNX32 (11753110_a_at) / Fold change /veh SNX32 (11753110_a_at) / RFU CDHR5 (11726645_a_at) / Fold change /veh CDHR5 (11726645_a_at) / RFU RCAN1 (11760418_a_at) / Fold change /veh RCAN1 (11760418_a_at) / RFU FAM167A (11723789_a_at) / Fold change /veh FAM167A (11723789_a_at) / RFU FAM26E (11764081_at) / Fold change /veh FAM26E (11764081_at) / RFU ISYNA1 (11749810_s_at) / Fold change /veh ISYNA1 (11749810_s_at) / RFU ACY1 (11761880_at) / Fold change /veh ACY1 (11761880_at) / RFU 11764098_at / Fold change /veh 11764098_at / RFU SAMD14 (11745864_x_at) / Fold change /veh SAMD14 (11745864_x_at) / RFU NPB (11741838_a_at) / Fold change /veh NPB (11741838_a_at) / RFU TMPRSS6 (11731388_a_at) / Fold change /veh TMPRSS6 (11731388_a_at) / RFU KRTAP10-2 (11738614_at) / Fold change /veh KRTAP10-2 (11738614_at) / RFU ARHGAP8 /// PRR5-ARHGAP8 (11727945_x_at) / Fold change /veh ARHGAP8 /// PRR5-ARHGAP8 (11727945_x_at) / RFU KRTAP5-7 /// NADSYN1 (11734609_at) / Fold change /veh KRTAP5-7 /// NADSYN1 (11734609_at) / RFU RASL12 (11751679_a_at) / Fold change /veh RASL12 (11751679_a_at) / RFU CDKN2B (11736163_a_at) / Fold change /veh CDKN2B (11736163_a_at) / RFU PRF1 (11729649_at) / Fold change /veh PRF1 (11729649_at) / RFU, ZNF638 /// ZNF638-IT1 / Fold change vs veh, ZNF638 /// ZNF638-IT1 / RFU, PANK3 / Fold change vs veh, PANK3 / RFU, SH3YL1 / Fold change vs veh, SH3YL1 / RFU, ZEB2 / Fold change vs veh, ZEB2 / RFU, NRIP1 / Fold change vs veh, NRIP1 / RFU, PTTG1IP / Fold change vs veh, PTTG1IP / RFU, CAPN2 / Fold change vs veh, CAPN2 / RFU, MED14 / Fold change vs veh, MED14 / RFU, SNORA58 / Fold change vs veh, SNORA58 / RFU, C1orf63 / Fold change vs veh, C1orf63 / RFU, LRRFIP1 / Fold change vs veh, LRRFIP1 / RFU, NDUFAF7 / Fold change vs veh, NDUFAF7 / RFU, SLC12A2 / Fold change vs veh, SLC12A2 / RFU, IBTK / Fold change vs veh, IBTK / RFU, ESF1 / Fold change vs veh, ESF1 / Fold change vs veh, TMEM50B / RFU, TAOK1 / Fold change vs veh, TAOK1 / RFU, ACBD3 / Fold change vs veh, ACBD3 / RFU, TMA16 / Fold change vs veh, TMA16 / RFU, RWDD3 / Fold change vs veh, RWDD3 / RFU, BCAT1 / Fold change vs veh, BCAT1 / RFU, EDEM3 / Fold change vs veh, EDEM3 / RFU, TMEM33 / Fold change vs veh, TMEM33 / RFU, WDR75 / Fold change vs veh, WDR75 / RFU, AHCTF1 / Fold change vs veh, AHCTF1 / RFU, TFRC / Fold change vs veh, TFRC / RFU, ZDHHC17 / Fold change vs veh, ZDHHC17 / RFU, NOM1 / Fold change vs veh, NOM1 / RFU, ARL8B / Fold change vs veh, ARL8B / RFU, ZBTB11 / Fold change vs veh, ZBTB11 / RFU, TAMM41 / Fold change vs veh, TAMM41 / RFU, KIAA1704 /// LOC100996395 / Fold change vs veh, KIAA1704 /// LOC100996395 / RFU, ING1 / Fold change vs veh, ING1 / RFU, TRMT61B / Fold change vs veh, TRMT61B / RFU, FUBP3 / Fold change vs veh, FUBP3 / RFU, TP53 / Fold change vs veh, TP53 / RFU, TNKS2 / Fold change vs veh, TNKS2 / RFU, ZFP14 / Fold change vs veh, ZFP14 / RFU, ACTR2 / Fold change vs veh, ACTR2 / RFU, PPP3R1 / Fold change vs veh, PPP3R1 / RFU, PIK3R1 / Fold change vs veh, PIK3R1 / RFU, HNRNPA1 / Fold change vs veh, HNRNPA1 / RFU, RNF170 / Fold change vs veh, RNF170 / RFU, ZNF28 / Fold change vs veh, ZNF28 / RFU, RNGTT / Fold change vs veh, RNGTT / RFU, OGT / Fold change vs veh, OGT / RFU, BRD1 / Fold change vs veh, BRD1 / RFU, MARS / Fold change vs veh, MARS / RFU, ZNF655 / Fold change vs veh, ZNF655 / RFU, FAHD1 / Fold change vs veh, FAHD1 / RFU, BDP1 / Fold change vs veh, BDP1 / RFU, LRRCC1 / Fold change vs veh, LRRCC1 / RFU, ARID1A / Fold change vs veh, ARID1A / RFU, ZNF146 / Fold change vs veh, ZNF146 / RFU, ZNF330 / Fold change vs veh, ZNF330 / RFU, GPN3 / Fold change vs veh, GPN3 / RFU, C9orf123 / Fold change vs veh, C9orf123 / RFU, N4BP2L2 / Fold change vs veh, N4BP2L2 / RFU, ARFIP1 / Fold change vs veh, ARFIP1 / RFU, FAM179B / Fold change vs veh, FAM179B / RFU, BCL10 / Fold change vs veh, BCL10 / RFU, UHRF1BP1L / Fold change vs veh, UHRF1BP1L / RFU, BET1 / Fold change vs veh, BET1 / RFU, CNOT2 / Fold change vs veh, CNOT2 / RFU, ZNF268 / Fold change vs veh, ZNF268 / Fold change vs veh, ZNF507 / RFU, DGCR2 / Fold change vs veh, DGCR2 / RFU, WDSUB1 / Fold change vs veh, WDSUB1 / Fold change vs veh, HSP90B1 /// MIR3652 / RFU, ADSS / Fold change vs veh, ADSS / RFU, GK / Fold change vs veh, GK / RFU, ZNF148 / Fold change vs veh, ZNF148 / RFU, TAF9 / Fold change vs veh, TAF9 / RFU, SLC1A5 / Fold change vs veh, SLC1A5 / RFU, SLMO2 / Fold change vs veh, SLMO2 / RFU, ABCC4 / Fold change vs veh, ABCC4 / RFU, LOC101060439 /// RAP1B / Fold change vs veh, LOC101060439 /// RAP1B / RFU, RFX7 / Fold change vs veh, RFX7 / RFU, GTPBP10 / Fold change vs veh, GTPBP10 / RFU, CNEP1R1 / Fold change vs veh, CNEP1R1 / RFU, BIVM-ERCC5 /// ERCC5 / Fold change vs veh, BIVM-ERCC5 /// ERCC5 / RFU, ILF3 / Fold change vs veh, ILF3 / RFU 11762660_at / Fold change /veh 11762660_at / RFU VCAN (11757783_s_at) / Fold change /veh VCAN (11757783_s_at) / RFU DDX43 (11728927_at) / Fold change /veh DDX43 (11728927_at) / RFU KRT8 (11758188_x_at) / Fold change /veh KRT8 (11758188_x_at) / RFU NKD1 (11759106_at) / Fold change /veh NKD1 (11759106_at) / RFU SRD5A1 (11742802_a_at) / Fold change /veh SRD5A1 (11742802_a_at) / RFU TPSAB1 /// TPSB2 (11721975_s_at) / Fold change /veh TPSAB1 /// TPSB2 (11721975_s_at) / RFU GSTM3 (11746129_a_at) / Fold change /veh GSTM3 (11746129_a_at) / RFU IL23R (11737362_x_at) / Fold change /veh IL23R (11737362_x_at) / RFU TMEM51 (11727254_a_at) / Fold change /veh TMEM51 (11727254_a_at) / RFU PIWIL2 (11732686_x_at) / Fold change /veh PIWIL2 (11732686_x_at) / RFU ORM1 (11744905_x_at) / Fold change /veh ORM1 (11744905_x_at) / RFU CCDC152 (11743942_at) / Fold change /veh CCDC152 (11743942_at) / RFU ECM1 (11717891_a_at) / Fold change /veh ECM1 (11717891_a_at) / RFU IL23R (11748794_a_at) / Fold change /veh IL23R (11748794_a_at) / RFU TNFAIP8L3 (11732012_x_at) / Fold change /veh TNFAIP8L3 (11732012_x_at) / RFU MBOAT4 (11741988_at) / Fold change /veh MBOAT4 (11741988_at) / RFU 11764193_at / Fold change /veh 11764193_at / RFU TMEM53 (11763286_at) / Fold change /veh TMEM53 (11763286_at) / RFU MAGEB2 (11727129_at) / Fold change /veh MAGEB2 (11727129_at) / RFU TMEM200A (11744735_a_at) / Fold change /veh TMEM200A (11744735_a_at) / RFU CCDC152 (11751479_a_at) / Fold change /veh CCDC152 (11751479_a_at) / RFU FAM211A (11726209_a_at) / Fold change /veh FAM211A (11726209_a_at) / RFU RGS16 (11746705_a_at) / Fold change /veh RGS16 (11746705_a_at) / RFU VCAN (11755009_s_at) / Fold change /veh VCAN (11755009_s_at) / RFU RHOB (11743442_s_at) / Fold change /veh RHOB (11743442_s_at) / RFU RGS16 (11720943_a_at) / Fold change /veh RGS16 (11720943_a_at) / RFU RGS16 (11720944_at) / Fold change /veh RGS16 (11720944_at) / RFU, VPS4B / Fold change vs veh, VPS4B / RFU, CREB1 / Fold change vs veh, CREB1 / RFU, DNAJC13 / Fold change vs veh, DNAJC13 / RFU, GNAQ / Fold change vs veh, GNAQ / RFU, CDK5R1 / Fold change vs veh, CDK5R1 / RFU, ZRANB3 / Fold change vs veh, ZRANB3 / RFU, CUL4A / Fold change vs veh, CUL4A / RFU, CCNY / Fold change vs veh, CCNY / RFU, UFL1 / Fold change vs veh, UFL1 / RFU, COG3 / Fold change vs veh, COG3 / RFU, DIAPH2 / Fold change vs veh, DIAPH2 / RFU, SKA2 / Fold change vs veh, SKA2 / RFU, AFF3 / Fold change vs veh, AFF3 / RFU, LMF1 / Fold change vs veh, LMF1 / RFU, IPO11 / Fold change vs veh, IPO11 / RFU, DFFB / Fold change vs veh, DFFB / RFU, FOXP1 / Fold change vs veh, FOXP1 / RFU, CARD8 / Fold change vs veh, CARD8 / RFU, STRN3 / Fold change vs veh, STRN3 / RFU, ADK / Fold change vs veh, ADK / RFU, RASSF2 / Fold change vs veh, RASSF2 / RFU, WIPF1 / Fold change vs veh, WIPF1 / RFU, LARP1B / Fold change vs veh, LARP1B / RFU, RASA1 / Fold change vs veh, RASA1 / RFU, RB1 / Fold change vs veh, RB1 / RFU, PPFIA1 / Fold change vs veh, PPFIA1 / RFU, MAT2A / Fold change vs veh, MAT2A / RFU, CCT5 / Fold change vs veh, CCT5 / RFU, WDR92 / Fold change vs veh, WDR92 / RFU, CUX1 / Fold change vs veh, CUX1 / RFU, TTC7A / Fold change vs veh, TTC7A / RFU, TMEM135 / Fold change vs veh, TMEM135 / RFU, DEPTOR / Fold change vs veh, DEPTOR / RFU, CPM / Fold change vs veh, CPM / RFU, DNAJB6 / Fold change vs veh, DNAJB6 / RFU, CACNA2D3 / Fold change vs veh, CACNA2D3 / RFU, DTX4 / Fold change vs veh, DTX4 / RFU, TFCP2 / Fold change vs veh, TFCP2 / RFU, GMCL1 /// GMCL1P1 / Fold change vs veh, GMCL1 /// GMCL1P1 / RFU, AEBP2 / Fold change vs veh, AEBP2 / RFU, SNHG1 /// SNORD22 /// SNORD25 /// SNORD26 /// SNORD27 /// SNORD28 /// SNORD29 /// SNORD31 / Fold change vs veh, SNHG1 /// SNORD22 /// SNORD25 /// SNORD26 /// SNORD27 /// SNORD28 /// SNORD29 /// SNORD31 / Fold change (Aza/veh), C12orf56 (ProbeSet 11735607_a_at) / Fold change (ACY-1035/veh), C12orf56 (ProbeSet 11735607_a_at) / Fold change (Aza/veh), FGFR1OP (ProbeSet 11751329_s_at) / Fold change (ACY-1035/veh), FGFR1OP (ProbeSet 11751329_s_at) / Fold change (Aza/veh), VPS36 (ProbeSet 11739960_a_at) / Fold change (ACY-1035/veh), VPS36 (ProbeSet 11739960_a_at) / RFU SYPL1 (11715823_x_at) / Fold change /veh SYPL1 (11715823_x_at) / RFU IGFBP7 (11715501_s_at) / Fold change /veh IGFBP7 (11715501_s_at) / RFU REEP3 (11722064_at) / Fold change /veh REEP3 (11722064_at) / RFU IGLL1 (11728026_x_at) / Fold change /veh IGLL1 (11728026_x_at): dose or concentration left out as unconfirmed
Conditions: ProbeSet 11757113_a_at; LIST D

Nc1ncn([C@@H]2O[C@H](CO)[C@@H](O)[C@H]2O)c(=O)n1 [azacitidine]
RFU, SNHG1 /// SNORD22 /// SNORD25 /// SNORD26 /// SNORD27 /// SNORD28 /// SNORD29 /// SNORD31: 298.12 RFU
